Source: doi:10.1101/2025.10.28.685111v1
Where two headings read alike, the source gives them in different places.

Tests used:
[1] = tested on: T1, Salmonella Typhimurium ATCC 14028 (STm); assay: microbe, parasite or virus in culture; design: Broth microdilution dose-response growth inhibition of STm in M9I, OD600, four-parameter fit; conditions: Salmonella enterica, read-out: IC50 (µM)
T1 construct: ATCC 14028
Method: Antimicrobial susceptibility was assessed using the traditional CLSI minimum inhibitory concentration (MIC) microplate dilution methods with a few modifications ([59]). Briefly, each compound (dissolved in MQ H2O for all pantetheinamides, or DMSO for pantothenamides) was serially diluted in 96-well plates to the desired concentrations. In the case of checkerboard assays, secondary compounds were separately diluted and added to the plate. Mid-exponential phase media-adapted bacteria were added at 5 × 10^5 CFU/mL and in the case of M9I or M9A cultures, the plates were sealed with a gas permeable moisture barrier seal (FroggaBio, Canada) to prevent excessive evaporation, before incubation at 37 °C and 350 rpm, using a tabletop orbital plate shaker (OHAUS, USA). Growth was quantified based on absorbance at 600 nm (OD600) using a microplate reader. The plate was monitored until there was visible growth in the untreated control, but without allowing for overgrowth: ∼14-16h (OD600 > 0.3) in MHB, ∼36 h (OD600 > 0.2) in M9A, and ∼72-120 h (OD600 > 0.15) in M9I. The IC50 was determined using a four-parameter logarithmic curve on Prism v9.0. All experiments were done at minimum in a biological triplicate. […] Consequently, the activity was reported as an IC50 value, rather than traditional MICs. […] All other categories had 2-4 molecules with sub-100 μM IC50 values. The general trend in activities for the substituents β to the acyl amide saw CF3 (e.g. 4-01) > thiazole (e.g. 5-01) > NO2 (e.g. 1-01) > CH3 (e.g. 3-01). […] Replacement of the thioester with either a sulfonamide or triazole, rather than an amide, was detrimental to activity. […] Furthermore, increasing the conformational rigidity of the α-substituent correlated with higher IC50 values (e.g, 1-14, methyl < 1-15, dimethyl < 1-16, cyclo  Fig. 2: Screening the pantetheinamides library. a, Percentage growth inhibition of STm by each of the inhibitors in the library, tested at 500 µM in MHB, M9A, or M9I as the sole carbon source. Inhibition % values are summarized in Supplementary Data 1. b, The IC50 in M9I of a subset of the inhibitor library. The full dataset is shown in Fig. S1 and summarized in Supplementary Data 2. c, Dose-response curves in M9I, M9A, and MHB for selected inhibitors, fit to a four-parameter logarithmic curve. d, Tabulated IC50 (± 95% CI), cytotoxicity and selectivity index (given as the cytoxocity/IC50 in M9I) for the same inhibitors as in c. […] The full dataset is shown in Fig. S4a. g, Sample of results summarized in f showing the CFU of surviving STm inside the compound treated macrophages after 22 h. Data bars show the geometric mean of CFU/mL with error bars depicting the 95% CI. The vehicle control (± 95% CI) is shown as the red line. All experiments were independently repeated a minimum of 3 times, where n ≥ 4 for each condition. Significant results were determined using a one-way ANOVA with Dunnett’s multiple comparisons against the vehicle. ✱, p < 0.05; ✱✱, p < 0.01; ✱✱✱, p < 0.001; ✱✱✱✱, p < 0.0001; ns, non-significant, p > 0.05. “X” denotes that a concentration was omitted from the experiment due to toxicity.

[2] = tested on: T1, Salmonella Typhimurium ATCC 14028 (STm); assay: microbe, parasite or virus in culture; design: Broth microdilution growth inhibition of STm at 500 uM in MHB, M9A or M9I, OD600; conditions: Salmonella enterica
Method: Antimicrobial susceptibility was assessed using the traditional CLSI minimum inhibitory concentration (MIC) microplate dilution methods with a few modifications ([59]). Briefly, each compound (dissolved in MQ H2O for all pantetheinamides, or DMSO for pantothenamides) was serially diluted in 96-well plates to the desired concentrations. In the case of checkerboard assays, secondary compounds were separately diluted and added to the plate. Mid-exponential phase media-adapted bacteria were added at 5 × 10^5 CFU/mL and in the case of M9I or M9A cultures, the plates were sealed with a gas permeable moisture barrier seal (FroggaBio, Canada) to prevent excessive evaporation, before incubation at 37 °C and 350 rpm, using a tabletop orbital plate shaker (OHAUS, USA). Growth was quantified based on absorbance at 600 nm (OD600) using a microplate reader. The plate was monitored until there was visible growth in the untreated control, but without allowing for overgrowth: ∼14-16h (OD600 > 0.3) in MHB, ∼36 h (OD600 > 0.2) in M9A, and ∼72-120 h (OD600 > 0.15) in M9I. The IC50 was determined using a four-parameter logarithmic curve on Prism v9.0. All experiments were done at minimum in a biological triplicate. […] To accomplish this, the compounds were screened for their ability to reduce STm growth at a high concentration (500 μM) in various media that reflect nutrient-related facets of either extracellular or intracellular environments (Fig. 2a). Mueller-Hinton broth (MHB)—the medium most widely employed for antibacterial testing—was used to represent nutrient-rich extracellular environments such as the gut, while aspects of the nutrient-limited intramacrophage environment were mimicked by using M9-minimal media containing either acetate (M9A) or itaconate (M9I) as the sole carbon source. Growth in M9A requires the glyoxylate shunt, simulating the use of fatty acids ([33]), whereas growth in M9I, as shown in our previous study, requires an active itaconate-degradation pathway and induces excess oxidative stress that is reflective of the intramacrophage environment ([34]). Of the 75 compounds tested, 31 inhibited growth (by >50%) in M9I, six in M9A, and one in MHB. […] In particular, the pantothenamides 6-13 and 6-14 were active in M9A as well as M9I, with 6-13 being the only MHB active compounds. The other M9A active compounds were 1-03 and 1-17 from the “nitro” category and 4-02 and 4-08 from the “fluoro-alkyl” category.  Fig. 2: Screening the pantetheinamides library. a, Percentage growth inhibition of STm by each of the inhibitors in the library, tested at 500 µM in MHB, M9A, or M9I as the sole carbon source. Inhibition % values are summarized in Supplementary Data 1. b, The IC50 in M9I of a subset of the inhibitor library. The full dataset is shown in Fig. S1 and summarized in Supplementary Data 2. c, Dose-response curves in M9I, M9A, and MHB for selected inhibitors, fit to a four-parameter logarithmic curve. d, Tabulated IC50 (± 95% CI), cytotoxicity and selectivity index (given as the cytoxocity/IC50 in M9I) for the same inhibitors as in c. […] The full dataset is shown in Fig. S4a. g, Sample of results summarized in f showing the CFU of surviving STm inside the compound treated macrophages after 22 h. Data bars show the geometric mean of CFU/mL with error bars depicting the 95% CI. The vehicle control (± 95% CI) is shown as the red line. All experiments were independently repeated a minimum of 3 times, where n ≥ 4 for each condition. Significant results were determined using a one-way ANOVA with Dunnett’s multiple comparisons against the vehicle. ✱, p < 0.05; ✱✱, p < 0.01; ✱✱✱, p < 0.001; ✱✱✱✱, p < 0.0001; ns, non-significant, p > 0.05. “X” denotes that a concentration was omitted from the experiment due to toxicity.

[3] = M9A, acetate minimal medium, 36 h, read-out: % Growth Inhibition (Avg) / M9A
[4] = M9I, itaconate minimal medium, 72-120 h, read-out: % Growth Inhibition (Avg) / M9I
[5] = MHB, nutrient-rich medium, 14-16 h, read-out: % Growth Inhibition (Avg) / MHB

CC(C)(CO)[C@@H](O)C(=O)NCCC(=O)NCCNC(=O)/C=C/C(F)(F)F [4-04]
IC50 [1]: 5.1 µM | inhibition at 500 µM [2, 3]: 37% | inhibition at 500 µM [2, 4]: 94% | inhibition at 500 µM [2, 5]: 0%

CC(C)(CO)[C@@H](O)C(=O)NCCC(=O)NCCNC(=O)C(F)C(F)(F)F (some centres unmarked) [4-07]
IC50 [1]: 30 µM | inhibition at 500 µM [2, 3]: 15% | inhibition at 500 µM [2, 4]: 94% | inhibition at 500 µM [2, 5]: 1%

CC(C)(CO)[C@@H](O)C(=O)NCCC(=O)NCCNC(=O)C1CC1(F)F (some centres unmarked) [4-10]
IC50 [1]: 29 µM | inhibition at 500 µM [2, 3]: 0% | inhibition at 500 µM [2, 4]: 86% | inhibition at 500 µM [2, 5]: 11%

CCCCCCCNC(=O)CCNC(=O)[C@H](O)C(C)(C)CO [6-13]
IC50 [1]: 0.13 µM | inhibition at 500 µM [2, 3]: 100% | inhibition at 500 µM [2, 4]: 100% | inhibition at 500 µM [2, 5]: 90%

CCCCCCCC(=O)NCCNC(=O)[C@H](O)C(C)(C)CO [6-14]
IC50 [1]: 1.1 µM | inhibition at 500 µM [2, 3]: 98% | inhibition at 500 µM [2, 4]: 99% | inhibition at 500 µM [2, 5]: 16%
